Laboratory results as given in BindingDB's records for doi:10.1016/0960-894X(95)00135-G (1995).

Assay: In vitro inhibitory activity against human neutrophil leukotriene B4 (LTB4) induced Chemotaxis

IC50	Structure (SMILES)
0.22 µM	CC(Oc1ccc2c(c1)OC[C@@H](Cc1ccccn1)[C@@H]2O)c1ccc2ccccc2n1 (stereo partly drawn) [(3R,4S)-3-Pyridin-2-ylmethyl-7-(1-quinolin-2-yl-ethoxy)-chroman-4-ol]
3.4 µM	C[C@@H](Oc1ccc2c(c1)OC[C@@H](Cc1cccnc1)[C@@H]2O)c1ccc2ccccc2n1 [(3R,4S)-3-Pyridin-3-ylmethyl-7-((R)-1-quinolin-2-yl-ethoxy)-chroman-4-ol]
6.1 µM	C[C@H](Oc1ccc2c(c1)OC[C@@H](Cc1cccnc1)[C@@H]2O)c1ccc2ccccc2n1 [(3R,4S)-3-Pyridin-3-ylmethyl-7-((S)-1-quinolin-2-yl-ethoxy)-chroman-4-ol]
14 µM	CC(Oc1ccc2c(c1)OC[C@H](Cc1ccccn1)[C@@H]2O)c1ccc2ccccc2n1 (stereo partly drawn) [(3S,4S)-3-Pyridin-2-ylmethyl-7-(1-quinolin-2-yl-ethoxy)-chroman-4-ol]
38 µM	CC(Oc1ccc2c(c1)OC[C@H](Cc1cccnc1)[C@@H]2O)c1ccc2ccccc2n1 (stereo partly drawn) [(3S,4S)-3-Pyridin-3-ylmethyl-7-(1-quinolin-2-yl-ethoxy)-chroman-4-ol]
